Data from ChEMBL document CHEMBL1143555, “Development of low molecular weight HIV-1 protease dimerization inhibitors” (J Med Chem, 2005).

Key:
[1] = target: Human immunodeficiency virus type 1 protease (Human immunodeficiency virus 1) (UniProt Q72874); experiment: Percent inhibition of human immunodeficiency virus-1 protease after 1 uM treatment
[2] = target: T1, Human immunodeficiency virus type 1 protease (Human immunodeficiency virus 1, UniProt Q72874); experiment: Inhibitory concentration against human immunodeficiency virus-1 protease
[3] = target: T1, Human immunodeficiency virus type 1 protease; experiment: Inhibitory concentration against human immunodeficiency virus -1 protease

Row | SMILES | IC50 [2] [µM] | Ki [3] [µM] | also measured
1 | CC(O)[C@H](NC(=O)CCCCCCCCCCCCCCC(=O)N[C@H](CC(=O)N[C@@H](Cc1ccccc1)C(=O)O)C(N)=O)C(=O)N[C@@H](C(=O)N[C@@H](Cc1ccccc1)C(N)=O)C1CCCCC1 (some centres not stated) | – | – | inhibition [1]: 45%
2 | CCC(C)[C@@H](NC(=O)C(Cc1ccc(F)c(F)c1)NC(=O)CCCCCCCCCCCCCCC(=O)N[C@H](CC(=O)N[C@@H](Cc1ccccc1)C(=O)O)C(N)=O)C(=O)N[C@@H](Cc1ccccc1)C(N)=O (some centres not stated) | 1.1 | – | –
3 | CCC(C)[C@@H](NC(=O)C(NC(=O)CCCCCCCCCCCCCCC(=O)N[C@H](CC(=O)N[C@@H](Cc1ccccc1)C(=O)O)C(N)=O)c1ccccc1)C(=O)N[C@@H](Cc1ccccc1)C(N)=O (some centres not stated) | 2.1 | – | –
4 | CC[C@H](C)[C@@H](NC(=O)[C@@H](NC(=O)CCCCCCCCCCCCCCC(=O)N[C@H](CC(=O)N[C@@H](Cc1ccccc1)C(=O)O)C(N)=O)[C@H](C)O)C(=O)N[C@@H](Cc1ccc(F)c(F)c1)C(N)=O | 872 | – | –
5 | CC[C@H](C)[C@@H](NC(=O)[C@@H](NC(=O)CCCCCCCCCCCCCCC(=O)N[C@H](CC(=O)N[C@@H](Cc1ccccc1)C(=O)O)C(N)=O)[C@H](C)O)C(=O)N[C@@H](Cc1ccc(N)cc1)C(N)=O | 3.6 | – | –
6 | CC[C@H](C)[C@@H](NC(=O)[C@@H](NC(=O)CCCCCCCCCCCCCCC(=O)N[C@H](CC(=O)N[C@@H](Cc1ccccc1)C(=O)O)C(N)=O)[C@H](C)O)C(=O)N[C@@H](Cc1ccc([N+](=O)[O-])cc1)C(N)=O | 590 | – | –
7 | CC[C@H](C)[C@@H](NC(=O)CCCCCCCCCCCCCCC(=O)N(C)[C@H](C(=O)N[C@@H](C(=O)NC(CO)C(N)=O)[C@@H](C)CC)[C@H](C)O)C(=O)N[C@@H](Cc1ccccc1)C(=O)O (some centres not stated) | – | 140 | –
8 | CC[C@H](C)[C@@H](NC(=O)[C@H]([C@H](C)O)N(C)C(=O)CCCCCCCCCCCCCCC(=O)Nc1ccccc1C(=O)N[C@@H](Cc1ccccc1)C(=O)O)C(=O)NC(CO)C(N)=O (some centres not stated) | – | 235 | –
9 | CC[C@H](C)[C@@H](NC(=O)[C@H]([C@H](C)O)N(C)C(=O)CCCCCCCCCCCCCCC(=O)NC(Cc1ccc(O)cc1)C(=O)N[C@@H](Cc1ccccc1)C(=O)O)C(=O)NC(CO)C(N)=O (some centres not stated) | 0.774 | – | –
10 | CC[C@H](C)[C@@H](NC(=O)[C@@H](NC(=O)CCCCCCCCCCCCCCC(=O)N[C@H](CC(=O)N[C@@H](Cc1ccccc1)C(=O)O)C(N)=O)[C@H](C)O)C(=O)N[C@H](Cc1ccc(Br)cc1)C(N)=O | 1.7 | – | –
11 | CCC(C)[C@@H](NC(=O)[C@@H](NC(=O)CCCCCCCCCCCCCCC(=O)N[C@@H](C(=O)N[C@@H](Cc1ccccc1)C(=O)O)c1ccc(OCc2ccccc2)cc1)C(C)O)C(=O)NC(CO)C(N)=O (some centres not stated) | – | 0.11 | –
12 | CC[C@H](C)[C@@H](NC(=O)[C@H]([C@H](C)O)N(C)C(=O)CCCCCCCCCCCCCCC(=O)N[C@H](Cc1ccccc1)C(=O)N[C@@H](Cc1ccccc1)C(=O)O)C(=O)NC(CO)C(N)=O (some centres not stated) | – | 0.112 | –
13 | CC[C@H](C)[C@@H](NC(=O)[C@@H](NC(=O)CCCCCCCCCCCCCCC(=O)N[C@H](CC(=O)N[C@@H](Cc1ccccc1)C(=O)O)C(N)=O)[C@H](C)O)C(=O)NC(CCc1ccccc1)C(N)=O (some centres not stated) | 1.3 | – | –
14 | CC[C@H](C)[C@@H](NC(=O)[C@@H](NC(=O)CCCCCCCCCCCCCCC(=O)N[C@H](CC(=O)N[C@@H](Cc1ccccc1)C(=O)O)C(N)=O)C(C)O)C(=O)N[C@@](C)(C(N)=O)c1cccc2ccccc12 (some centres not stated) | – | 0.127 | –
15 | CCC(C)[C@H](NC(=O)CCCCCCCCCCCCCCC(=O)N[C@@H](CC(N)=O)C(=O)N[C@@H](Cc1ccc([N+](=O)[O-])cc1)C(=O)O)C(=O)N[C@H](Cc1ccccc1)C(N)=O (some centres not stated) | – | 0.384 | –
16 | CC(O)[C@H](NC(=O)CCCCCCCCCCCCCCC(=O)N[C@H](CC(=O)N[C@@H](Cc1ccccc1)C(=O)O)C(N)=O)C(=O)N[C@H](CC1CCCCC1)C(=O)N[C@@H](Cc1ccccc1)C(N)=O (some centres not stated) | – | – | inhibition [1]: 30%
17 | CC[C@H](C)[C@@H](NC(=O)c1cccc(CNC(=O)CCCCCCCCCCCCCCC(=O)N[C@H](CC(=O)N[C@@H](Cc2ccccc2)C(=O)O)C(N)=O)c1)C(=O)N[C@@H](Cc1ccccc1)C(N)=O | – | – | inhibition [1]: 10%
18 | CCCC(NC(=O)CCCCCCCCCCCCCCC(=O)N[C@H](CC(=O)N[C@@H](Cc1ccccc1)C(=O)O)C(N)=O)C(=O)N[C@@H](C(=O)N[C@@H](Cc1ccccc1)C(N)=O)[C@@H](C)CC (some centres not stated) | – | – | inhibition [1]: 14%
19 | CCCCC(NC(=O)CCCCCCCCCCCCCCC(=O)N[C@H](CC(=O)N[C@@H](Cc1ccccc1)C(=O)O)C(N)=O)C(=O)N[C@@H](C(=O)N[C@@H](Cc1ccccc1)C(N)=O)C(C)CC (some centres not stated) | 1.6 | – | –
20 | CCC(C)[C@H](NC(=O)CCCCCCCCCCCCCCC(=O)N[C@@H](CC(N)=O)C(=O)N[C@@H](CCc1ccccc1)C(=O)O)C(=O)N[C@H](Cc1ccccc1)C(N)=O (some centres not stated) | – | 0.268 | –
21 | CCC(C)[C@H](NC(=O)CCCCCCCCCCCCCCC(=O)N[C@@H](CC(N)=O)C(=O)NC(C(=O)O)C1CCCCC1)C(=O)N[C@H](Cc1ccccc1)C(N)=O (some centres not stated) | – | 0.254 | –
22 | CCC(C)[C@H](NC(=O)CCCCCCCCCCCCCCC(=O)N[C@@H](CC(N)=O)C(=O)NC(Cc1ccc2ccccc2c1)C(=O)O)C(=O)N[C@H](Cc1ccccc1)C(N)=O (some centres not stated) | – | 0.267 | –
23 | CC[C@H](C)[C@@H](NC(=O)C(NC(=O)CCCCCCCCCCCCCCC(=O)N[C@H](CC(=O)N[C@@H](Cc1ccccc1)C(=O)O)C(N)=O)C(C)(C)C)C(=O)N[C@@H](Cc1ccccc1)C(N)=O (some centres not stated) | 7.7 | – | –

Row | SMILES | IC50 [2] [µM] | Ki [3] [µM] | also measured
24 | CCC(C)[C@@H](NC(=O)C(CCc1ccccc1)NC(=O)CCCCCCCCCCCCCCC(=O)N[C@H](CC(=O)N[C@@H](Cc1ccccc1)C(=O)O)C(N)=O)C(=O)N[C@@H](Cc1ccccc1)C(N)=O (some centres not stated) | 0.98 | – | –
25 | CCC(C)[C@@H](NC(=O)[C@@H](NC(=O)CCCCCCCCCCCCCCC(=O)N[C@@H](Cc1ccc(F)c(F)c1)C(=O)N[C@@H](Cc1ccccc1)C(=O)O)C(C)O)C(=O)NC(CO)C(N)=O (some centres not stated) | – | 0.106 | –
26 | CCC(C)[C@@H](NC(=O)[C@@H](NC(=O)CCCCCCCCCCCCCCC(=O)N[C@H](CC(=O)N[C@@H](Cc1ccccc1)C(=O)O)C(N)=O)C(C)O)C(=O)N[C@@H](Cc1ccccc1)C(N)=O (some centres not stated) | 0.0011 | 210 | –
27 | CC[C@H](C)[C@@H](NC(=O)[C@@H](NC(=O)CCCCCCCCCCCCCCC(=O)N[C@H](CC(=O)N[C@@H](Cc1ccccc1)C(=O)O)C(N)=O)[C@H](C)O)C(=O)N[C@@H](Cc1ccc(OCc2ccccc2)cc1)C(N)=O | – | 0.414 | –
28 | CCC(C)[C@H](NC(=O)CCCCCCCCCCCCCCC(=O)N[C@@H](CC(N)=O)C(=O)NC(CC1CCCCC1)C(=O)O)C(=O)N[C@H](Cc1ccccc1)C(N)=O (some centres not stated) | – | 0.285 | –
29 | CC[C@H](C)[C@@H](NC(=O)[C@@H](NC(=O)CCCCCCCCCCCCCCC(=O)N[C@H](CC(=O)N[C@@H](Cc1ccccc1)C(=O)O)C(N)=O)[C@H](C)O)C(=O)N1Cc2[nH]c3ccccc3c2CC1C(N)=O (some centres not stated) | 3.1 | – | –
30 | CC[C@H](C)[C@@H](NC(=O)[C@@H](NC(=O)CCCCCCCCCCCCCCC(=O)N[C@H](CC(=O)N[C@@H](Cc1ccccc1)C(=O)O)C(N)=O)[C@H](C)O)C(=O)N[C@@H](Cc1cc(I)c(O)c(I)c1)C(N)=O | 740 | – | –
31 | CCC(C)[C@@H](NC(=O)[C@H](C(C)O)N(C)C(=O)CCCCCCCCCCCCCCC(=O)NC(Cc1ccc(N)cc1)C(=O)N[C@@H](Cc1ccccc1)C(=O)O)C(=O)NC(CO)C(N)=O (some centres not stated) | 0.0012 | – | –
32 | CC[C@H](C)[C@@H](NC(=O)[C@@H](NC(=O)CCCCCCCCCCCCCCC(=O)N[C@H](CC(=O)N[C@@H](Cc1ccccc1)C(=O)O)C(N)=O)[C@H](C)O)C(=O)N[C@H](Cc1ccc(C#N)cc1)C(N)=O | 1.4 | – | –
33 | CCC(C)[C@H](NC(=O)CCCCCCCCCCCCCCC(=O)N[C@@H](CC(N)=O)C(=O)N[C@@H](Cc1ccc(C(=O)c2ccccc2)cc1)C(=O)O)C(=O)N[C@H](Cc1ccccc1)C(N)=O (some centres not stated) | – | 0.223 | –
34 | CC[C@H](C)[C@@H](NC(=O)[C@H]([C@H](C)O)N(C)C(=O)CCCCCCCCCCCCCCC(=O)NC(CC(C)C)C(=O)N[C@@H](Cc1ccccc1)C(=O)O)C(=O)NC(CO)C(N)=O (some centres not stated) | – | 0.273 | –
35 | CC(C)C[C@H](NC(=O)[C@@H](NC(=O)CCCCCCCCCCCCCCC(=O)N[C@H](CC(=O)N[C@@H](Cc1ccccc1)C(=O)O)C(N)=O)C(C)O)C(=O)N[C@@H](Cc1ccccc1)C(N)=O (some centres not stated) | 0.0054 | 3 | –
36 | CC[C@H](C)[C@@H](NC(=O)[C@H]([C@H](C)O)N(C)C(=O)CCCCCCCCCCCCCCC(=O)N[C@@H](C(=O)N[C@@H](Cc1ccccc1)C(=O)O)C(C)C)C(=O)NC(CO)C(N)=O (some centres not stated) | – | 0.202 | –
37 | CC[C@H](C)[C@@H](NC(=O)[C@@H](NC(=O)CCCCCCCCCCCCCCC(=O)N[C@H](CC(=O)N[C@@H](Cc1ccccc1)C(=O)O)C(N)=O)[C@H](C)O)C(=O)N[C@@H](Cc1ccc(C(=O)c2ccccc2)cc1)C(N)=O | – | 0.314 | –
38 | CC[C@H](C)[C@@H](NC(=O)[C@H]([C@H](C)O)N(C)C(=O)CCCCCCCCCCCCCCC(=O)N[C@H](Cc1ccc(C#N)cc1)C(=O)N[C@@H](Cc1ccccc1)C(=O)O)C(=O)NC(CO)C(N)=O (some centres not stated) | – | 0.14 | –
39 | CC[C@H](C)[C@@H](NC(=O)[C@@H](NC(=O)CCCCCCCCCCCCCCC(=O)N[C@H](CC(=O)N[C@@H](Cc1ccccc1)C(=O)O)C(N)=O)[C@H](C)O)C(=O)NC(Cc1ccc([N+](=O)[O-])c(O)c1)C(N)=O (some centres not stated) | – | 0.164 | –
40 | CC[C@H](C)[C@@H](NC(=O)[C@H]([C@H](C)O)N(C)C(=O)CCCCCCCCCCCCCCC(=O)N[C@H](CCc1ccccc1)C(=O)N[C@@H](Cc1ccccc1)C(=O)O)C(=O)NC(CO)C(N)=O (some centres not stated) | – | 0.16 | –
41 | CCC(C)[C@@H](NC(=O)[C@@H](NC(=O)CCCCCCCCCCCCCCC(=O)N[C@@H](Cc1ccc(O)c([N+](=O)[O-])c1)C(=O)N[C@@H](Cc1ccccc1)C(=O)O)C(C)O)C(=O)NC(CO)C(N)=O (some centres not stated) | – | 0.102 | –
42 | CCC(C)[C@@H](NC(=O)[C@H](C(C)O)N(C)C(=O)CCCCCCCCCCCCCCC(=O)NC(Cc1ccc(OP(=O)(O)O)cc1)C(=O)N[C@@H](Cc1ccccc1)C(=O)O)C(=O)NC(CO)C(N)=O (some centres not stated) | 2.1 | – | –
43 | CC[C@H](C)[C@@H](NC(=O)[C@@H](NC(=O)CCCCCCCCCCCCCCC(=O)N[C@H](CC(=O)N[C@@H](Cc1ccccc1)C(=O)O)C(N)=O)[C@H](C)O)C(=O)N[C@@H](Cc1ccccc1)C(=O)N[C@@H](Cc1ccccc1)C(N)=O | – | 0.361 | –
44 | CCC(C)[C@@H](NC(=O)C(CCC(C)C)NC(=O)CCCCCCCCCCCCCCC(=O)N[C@H](CC(=O)N[C@@H](Cc1ccccc1)C(=O)O)C(N)=O)C(=O)N[C@@H](Cc1ccccc1)C(N)=O (some centres not stated) | – | 502 | –
45 | CCC(C)[C@@H](NC(=O)[C@@H](NC(=O)CCCCCCCCCCCCCCC(=O)N[C@@H](Cc1ccc([N+](=O)[O-])cc1)C(=O)N[C@@H](Cc1ccccc1)C(=O)O)C(C)O)C(=O)NC(CO)C(N)=O (some centres not stated) | – | 0.103 | –
